Reference: US9592221B2, “Antibacterial agents: aryl myxopyronin derivatives” (priority 2012, dated 2017)
Values after ≈ are worked out from the molar mass of the structure shown.

What was measured:
[1] = target: S. aureus RNA polymerase core enzyme, S. aureus σ^A (Staphylococcus aureus, UniProt P47768+Q2G0N5); assay: Fluorescence-detected RNA polymerase assay, S. aureus RNA polymerase; format: biochemical; conditions: read-out: IC50 S. aureus RNAP
[2] = test system: Escherichia coli D21f2tolC; assay: MIC, spiral gradient endpoint assay, E. coli D21f2tolC; format: cell-based; conditions: Escherichia coli, D21F2TOLC, read-out: MIC E. coli D21f2toIC
[3] = target: M. tuberculosis RNA polymerase core enzyme, M. tuberculosis σ^A (Mycobacterium tuberculosis, UniProt P9WGY7+P9WGY9); assay: Fluorescence-detected RNA polymerase assay, M. tuberculosis RNA polymerase; format: biochemical; conditions: read-out: IC50 M. tuberculosis RNAP
[4] = test system: Staphylococcus aureus ATCC 12600; assay: MIC, spiral gradient endpoint assay, S. aureus ATCC 12600; format: cell-based; conditions: ATCC12600; Staphylococcus aureus ATCC 12600
[5] = target: E. coli RNA polymerase σ^70 holoenzyme (Escherichia coli, UniProt P0A8T7+P0A8V2); assay: Fluorescence-detected RNA polymerase assay, E. coli RNA polymerase; format: biochemical; conditions: read-out: IC50 E. coli RNAP
[6] = test system: Mycobacterium tuberculosis H37Rv; assay: MIC, microplate Alamar Blue assay, M. tuberculosis; format: cell-based
[7] = test system: Acinetobacter baumannii ATCC 19606; assay: MIC, spiral gradient endpoint assay, A. baumannii; format: cell-based; conditions: ATCC19606; Acinetobacter baumannii ATCC 19606
[8] = test system: Brucella melitensis 16M; assay: microbe, parasite or virus in culture; format: cell-based; conditions: Brucella melitensis, 16M, read-out: MIC B. melitensis 16M
[9] = test system: Burkholderia mallei CHN7; assay: microbe, parasite or virus in culture; format: cell-based; conditions: Burkholderia mallei, CHN7, read-out: MIC B. mallei CHN7
[10] = test system: Bacillus anthracis Vollum 1b; assay: microbe, parasite or virus in culture; format: cell-based; conditions: Bacillus anthracis, VOLLUM1B, read-out: MIC B. anthracis Vollum-1b
[11] = test system: Yersinia pestis C092; assay: microbe, parasite or virus in culture; format: cell-based; conditions: Yersinia pestis, C092, read-out: MIC Y. pestis C092
[12] = test system: Burkholderia pseudomallei Human/Blood/OH/US/1994; assay: microbe, parasite or virus in culture; format: cell-based; conditions: Burkholderia pseudomallei, read-out: MIC B. pseudomallei Human/Blood/OH
[13] = test system: Francisella tularensis SCHU4; assay: microbe, parasite or virus in culture; format: cell-based; conditions: Francisella tularensis, SCHU4, read-out: MIC F. tularensis SCHU4

Chain of E. coli RNA polymerase σ^70 holoenzyme (P0A8T7 whole entry): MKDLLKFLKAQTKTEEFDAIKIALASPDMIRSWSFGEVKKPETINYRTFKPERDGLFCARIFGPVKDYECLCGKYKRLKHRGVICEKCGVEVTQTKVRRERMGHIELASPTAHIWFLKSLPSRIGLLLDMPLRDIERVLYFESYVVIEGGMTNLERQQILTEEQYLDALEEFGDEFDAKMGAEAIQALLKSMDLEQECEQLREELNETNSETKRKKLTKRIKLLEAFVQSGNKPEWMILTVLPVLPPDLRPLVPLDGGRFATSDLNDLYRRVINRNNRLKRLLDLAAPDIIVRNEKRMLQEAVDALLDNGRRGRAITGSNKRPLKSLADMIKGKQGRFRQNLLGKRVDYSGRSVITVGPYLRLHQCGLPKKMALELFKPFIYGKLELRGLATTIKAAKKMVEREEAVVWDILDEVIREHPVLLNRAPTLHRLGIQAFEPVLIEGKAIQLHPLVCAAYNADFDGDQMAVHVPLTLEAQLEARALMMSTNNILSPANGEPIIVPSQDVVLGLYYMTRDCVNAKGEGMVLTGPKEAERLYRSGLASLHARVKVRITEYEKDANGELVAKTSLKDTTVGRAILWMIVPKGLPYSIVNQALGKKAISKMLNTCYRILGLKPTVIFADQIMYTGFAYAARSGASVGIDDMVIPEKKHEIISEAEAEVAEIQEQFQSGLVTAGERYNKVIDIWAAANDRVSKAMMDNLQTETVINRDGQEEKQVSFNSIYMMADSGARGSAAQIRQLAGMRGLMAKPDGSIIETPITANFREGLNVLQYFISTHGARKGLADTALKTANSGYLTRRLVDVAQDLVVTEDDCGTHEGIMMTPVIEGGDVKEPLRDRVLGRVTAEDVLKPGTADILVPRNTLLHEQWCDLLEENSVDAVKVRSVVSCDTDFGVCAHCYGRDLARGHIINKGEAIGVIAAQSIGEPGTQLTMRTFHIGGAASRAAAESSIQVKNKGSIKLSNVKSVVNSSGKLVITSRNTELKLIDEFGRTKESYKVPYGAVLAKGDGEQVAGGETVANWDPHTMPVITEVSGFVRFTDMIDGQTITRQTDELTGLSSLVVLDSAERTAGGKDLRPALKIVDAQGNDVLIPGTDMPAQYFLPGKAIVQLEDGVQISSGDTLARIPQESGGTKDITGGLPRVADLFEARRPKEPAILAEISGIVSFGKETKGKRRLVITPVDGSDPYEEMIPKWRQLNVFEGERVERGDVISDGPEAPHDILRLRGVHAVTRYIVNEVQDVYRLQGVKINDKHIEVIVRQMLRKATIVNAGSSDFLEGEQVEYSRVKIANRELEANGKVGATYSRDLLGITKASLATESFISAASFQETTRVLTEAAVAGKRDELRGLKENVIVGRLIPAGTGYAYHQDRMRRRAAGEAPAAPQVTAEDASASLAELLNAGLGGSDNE
Chain of E. coli RNA polymerase σ^70 holoenzyme (P0A800 whole entry, further chain): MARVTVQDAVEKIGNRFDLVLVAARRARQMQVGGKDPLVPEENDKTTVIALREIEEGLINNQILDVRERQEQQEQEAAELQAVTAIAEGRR
Chain of E. coli RNA polymerase σ^70 holoenzyme (P0A8V2 whole entry): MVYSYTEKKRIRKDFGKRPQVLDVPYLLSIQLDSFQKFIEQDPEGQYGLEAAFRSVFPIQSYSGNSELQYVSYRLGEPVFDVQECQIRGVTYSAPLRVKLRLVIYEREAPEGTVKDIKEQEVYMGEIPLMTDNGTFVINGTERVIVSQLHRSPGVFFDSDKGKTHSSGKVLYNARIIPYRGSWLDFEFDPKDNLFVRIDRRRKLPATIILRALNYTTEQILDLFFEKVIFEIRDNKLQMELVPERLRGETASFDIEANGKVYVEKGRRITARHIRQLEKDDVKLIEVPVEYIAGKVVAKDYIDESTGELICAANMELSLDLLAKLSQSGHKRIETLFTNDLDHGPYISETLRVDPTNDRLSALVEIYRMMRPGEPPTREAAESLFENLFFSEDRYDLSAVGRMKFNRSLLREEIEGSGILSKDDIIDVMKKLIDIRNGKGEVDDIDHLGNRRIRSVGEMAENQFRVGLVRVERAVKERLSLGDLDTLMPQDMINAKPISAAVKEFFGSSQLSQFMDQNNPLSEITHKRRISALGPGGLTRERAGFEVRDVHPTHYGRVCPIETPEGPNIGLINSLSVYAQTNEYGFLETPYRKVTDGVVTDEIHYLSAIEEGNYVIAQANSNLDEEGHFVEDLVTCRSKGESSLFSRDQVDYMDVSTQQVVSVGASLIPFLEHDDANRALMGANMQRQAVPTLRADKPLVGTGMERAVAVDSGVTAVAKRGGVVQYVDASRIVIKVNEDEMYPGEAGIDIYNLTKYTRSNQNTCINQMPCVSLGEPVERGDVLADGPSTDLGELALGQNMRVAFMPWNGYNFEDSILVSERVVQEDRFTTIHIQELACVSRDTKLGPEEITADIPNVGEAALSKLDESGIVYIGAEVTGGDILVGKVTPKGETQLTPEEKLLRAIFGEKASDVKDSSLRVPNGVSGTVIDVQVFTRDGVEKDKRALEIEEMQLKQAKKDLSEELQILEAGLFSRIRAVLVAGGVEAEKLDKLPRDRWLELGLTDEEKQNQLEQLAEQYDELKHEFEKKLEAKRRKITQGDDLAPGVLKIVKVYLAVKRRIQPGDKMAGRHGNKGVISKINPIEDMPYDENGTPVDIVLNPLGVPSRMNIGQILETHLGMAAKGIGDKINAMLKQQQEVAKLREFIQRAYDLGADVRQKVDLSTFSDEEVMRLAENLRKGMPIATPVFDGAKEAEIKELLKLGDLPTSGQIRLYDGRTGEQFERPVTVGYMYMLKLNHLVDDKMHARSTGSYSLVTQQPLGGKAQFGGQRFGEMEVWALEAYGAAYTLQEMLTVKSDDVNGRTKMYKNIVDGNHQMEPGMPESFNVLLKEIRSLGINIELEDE
Chain of E. coli RNA polymerase σ^70 holoenzyme (P00579 whole entry, further chain): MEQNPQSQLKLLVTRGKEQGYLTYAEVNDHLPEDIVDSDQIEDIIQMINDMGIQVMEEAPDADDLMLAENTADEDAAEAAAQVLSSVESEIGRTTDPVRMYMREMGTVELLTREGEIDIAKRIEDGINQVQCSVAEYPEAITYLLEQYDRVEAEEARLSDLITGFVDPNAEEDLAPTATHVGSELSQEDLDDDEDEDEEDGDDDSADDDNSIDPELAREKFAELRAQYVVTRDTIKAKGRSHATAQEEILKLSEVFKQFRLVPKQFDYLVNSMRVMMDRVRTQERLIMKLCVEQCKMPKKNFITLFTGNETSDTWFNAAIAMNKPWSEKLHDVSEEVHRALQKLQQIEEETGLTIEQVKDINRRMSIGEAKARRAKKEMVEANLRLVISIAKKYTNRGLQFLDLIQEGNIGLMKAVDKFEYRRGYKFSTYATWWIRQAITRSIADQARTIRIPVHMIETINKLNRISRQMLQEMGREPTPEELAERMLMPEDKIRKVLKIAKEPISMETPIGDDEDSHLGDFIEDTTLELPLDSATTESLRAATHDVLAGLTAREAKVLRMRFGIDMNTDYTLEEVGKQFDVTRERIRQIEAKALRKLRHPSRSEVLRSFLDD
Chain of E. coli RNA polymerase σ^70 holoenzyme (P0A7Z4 whole entry, further chain): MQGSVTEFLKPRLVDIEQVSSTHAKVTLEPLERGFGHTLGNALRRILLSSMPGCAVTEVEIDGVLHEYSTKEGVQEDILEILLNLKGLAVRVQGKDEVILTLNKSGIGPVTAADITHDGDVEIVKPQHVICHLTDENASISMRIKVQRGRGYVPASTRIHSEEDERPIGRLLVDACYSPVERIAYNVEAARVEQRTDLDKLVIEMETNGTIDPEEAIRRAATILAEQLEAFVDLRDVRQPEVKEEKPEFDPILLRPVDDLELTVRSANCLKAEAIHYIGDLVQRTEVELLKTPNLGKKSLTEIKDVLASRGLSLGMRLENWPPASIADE

Row | Compound | IC50 [1] [nM] | MIC [2] [µg/mL] | IC50 [3] [nM] | MIC [4] [µg/mL] | IC50 [5] [nM] | MIC [6] [µg/mL] | MIC [7] [µg/mL] | MIC [8] [µg/mL] | MIC [9] [µg/mL] | MIC [10] [µg/mL] | MIC [11] [µg/mL] | MIC [12] [µg/mL] | MIC [13] [µg/mL]
1 | CCCCc1ccc2cc(C=C(C)C(=O)c3c(O)cc(C(C)CC/C=C/NC(=O)OC)oc3=O)sc2c1 (mixture of isomers) [APY86, methyl ((1E)-5-(3-(3-(6-butylbenzo[b]thiophen-2-yl)-2-methylacryloyl)-4-hydroxy-2-oxo-2H-pyran-6-yl)hex-1-en-1-yl)carbamate] | 300 | 0.2 | 1000 | > 40 | 20 | > 50 | > 40 |  |  |  |  |  | 
2 | CCCCc1ccc2c(c1)cc(C=C(C)C(=O)c1c(O)cc(C(C)CC/C=C/NC(=O)OC)oc1=O)n2C (mixture of isomers) [APY104, methyl ((1E)-5-(3-(3-(5-butyl-1-methyl-1H-indol-2-yl)-2-methylacryloyl)-4-hydroxy-2-oxo-2H-pyran-6-yl)hex-1-en-1-yl)carbamate] |  | 0.1 | 200 | 5 | 8 | > 50 | 9 |  |  |  |  |  | 
3 | COC(=O)N/C=C/CCC(C)c1cc(O)c(C(=O)C(C)=Cc2cc3cc(CCC(C)C)ccc3n2C)c(=O)o1 (mixture of isomers) [APY105, methyl ((1E)-5-(4-hydroxy-3-(3-(5-isopentyl-1-methyl-1H-indol-2-yl)-2-methylacryloyl)-2-oxo-2H-pyran-6-yl)hex-1-en-1-yl)carbamate] |  | 2 | 5000 | > 40 | 40 |  | > 40 |  |  |  |  |  | 
4 | COC(=O)N/C=C/CCC(C)c1cc(O)c(C(=O)C(C)=Cc2ccc(CCCCC(F)(F)F)s2)c(=O)o1 (mixture of isomers) [APY98, methyl ((1E)-5-(4-hydroxy-3-(2-methyl-3-(5-(5,5,5-trifluoropentyl)thiophen-2-yl)acryloyl)-2-oxo-2H-pyran-6-yl)hex-1-en-1-yl)carbamate] |  | 0.1 | 40 | 1 | 6 | 50 | 20 |  |  |  |  |  | 
5 | CCOc1ccc(C=C(C)C(=O)c2c(O)cc(C(C)CC/C=C/NC(=O)OC)oc2=O)s1 (mixture of isomers) [APY102, methyl ((1E)-5-(3-(3-(5-ethoxythiophen-2-yl)-2-methylacryloyl)-4-hydroxy-2-oxo-2H-pyran-6-yl)hex-1-en-1-yl)carbamate] |  | 1 | 500 | 10 | 200 | 30 | > 40 |  |  |  |  |  | 
6 | CCCOc1ccc2c(c1)cc(C=C(C)C(=O)c1c(O)cc(C(C)CC/C=C/NC(=O)OC)oc1=O)n2C (mixture of isomers) [APY121, methyl ((1E)-5-(4-hydroxy-3-(2-methyl-3-(1-methyl-5-propoxy-1H-indol-2-yl)acryloyl)-2-oxo-2H-pyran-6-yl)hex-1-en-1-yl)carbamate] |  | 0.8 |  | > 40 | 500 | > 50 | > 40 | > 50 | > 50 | > 50 | > 50 | > 50 | > 50
7 | COC(=O)N/C=C/CCC(C)c1cc(O)c(C(=O)C(C)=Cc2ccc(CCCO)s2)c(=O)o1 (mixture of isomers) [APY94, methyl ((1E)-5-(4-hydroxy-3-(3-(5-(3-hydroxypropyl)thiophen-2-yl)-2-methylacryloyl)-2-oxo-2H-pyran-6-yl)hex-1-en-1-yl)carbamate] |  | 3 | > 6000 | > 40 | > 6000 |  | > 40 |  |  |  |  |  | 
8 | CCCCc1ncc(C=C(C)C(=O)c2c(O)cc(C(C)CC/C=C/NC(=O)OC)oc2=O)s1 (mixture of isomers) [APY136, methyl ((1E)-5-(3-(3-(2-butylthiazol-5-yl)-2-methylacryloyl)-4-hydroxy-2-oxo-2H-pyran-6-yl)hex-1-en-1-yl)carbamate] |  | 0.2 |  | 1 | 20 | 6 | > 40 | 6 | 30 | 10 | 10 | 50 | > 50
9 | COC(=O)N/C=C/CCC(C)c1cc(O)c(C(=O)C(C)=Cc2ccc(CCCCCF)s2)c(=O)o1 (centres unmarked) [APY97, methyl ((1E)-5-(3-(3-(5-(5-fluoropentyl)thiophen-2-yl)-2-methylacryloyl)-4-hydroxy-2-oxo-2H-pyran-6-yl)hex-1-en-1-yl)carbamate] | 400 | 0.1 (≈ 0.198 µM) |  | 2 (≈ 3.96 µM) | 20 | > 50 | > 40 |  |  |  |  |  | 
10 | COC(=O)N/C=C/CCC(C)c1cc(O)c(C(=O)C(C)=Cc2ccc(OC)s2)c(=O)o1 (mixture of isomers) [APY101, methyl ((1E)-5-(4-hydroxy-3-(3-(5-methoxythiophen-2-yl)-2-methylacryloyl)-2-oxo-2H-pyran-6-yl)hex-1-en-1-yl)carbamate] |  | 3 | > 6000 | > 40 | > 6000 |  | > 40 |  |  |  |  |  | 
11 | CCCOc1ccc(C=C(C)C(=O)c2c(O)cc(C(C)CC/C=C/NC(=O)OC)oc2=O)s1 (mixture of isomers) [APY103, methyl ((1E)-5-(4-hydroxy-3-(2-methyl-3-(5-propoxythiophen-2-yl)acryloyl)-2-oxo-2H-pyran-6-yl)hex-1-en-1-yl)carbamate] |  | 0.4 | 20 | 2 | 20 | 30 | > 40 |  |  |  |  |  | 
12 | COC(=O)N/C=C/CCC(C)c1cc(O)c(C(=O)C(C)=Cc2ccc(OCCC(F)(F)F)s2)c(=O)o1 (mixture of isomers) [APY139, methyl ((1E)-5-(4-hydroxy-3-(2-methyl-3-(5-(3,3,3-trifluoropropoxy)thiophen-2-yl)acryloyl)-2-oxo-2H-pyran-6-yl)hex-1-en-1-yl)carbamate] |  | 0.2 |  | 2 | 30 | 6 | > 40 | 10 | 50 | 6 | 10 | > 50 | > 50
13 | COCc1ccc(C=C(C)C(=O)c2c(O)cc(C(C)CC/C=C/NC(=O)OC)oc2=O)s1 (mixture of isomers) [APY106, methyl ((1E)-5-(4-hydroxy-3-(3-(5-(methoxymethyl)thiophen-2-yl)-2-methylacryloyl)-2-oxo-2H-pyran-6-yl)hex-1-en-1-yl)carbamate] |  | 3 | 4000 | > 40 | 500 |  | > 40 |  |  |  |  |  | 
14 | COCCCc1ccc(C=C(C)C(=O)c2c(O)cc(C(C)CC/C=C/NC(=O)OC)oc2=O)s1 (mixture of isomers) [APY100, methyl ((1E)-5-(4-hydroxy-3-(3-(5-(3-methoxypropyl)thiophen-2-yl)-2-methylacryloyl)-2-oxo-2H-pyran-6-yl)hex-1-en-1-yl)carbamate] |  | 1 | 1000 | > 40 | 60 |  | > 40 |  |  |  |  |  | 
15 | COC(=O)N/C=C/CCC(C)c1cc(O)c(C(=O)C(C)=Cc2cc(Br)c(CC(C)C)s2)c(=O)o1 (mixture of isomers) [APY120, methyl ((1E)-5-(3-(3-(4-bromo-5-isobutylthiophen-2-yl)-2-methylacryloyl)-4-hydroxy-2-oxo-2H-pyran-6-yl)hex-1-en-1-yl)carbamate] |  | 0.2 |  | 1 | 20 | > 50 | 30 | 3 | 6 | 2 | 6 | 10 | 50
16 | COC(=O)N/C=C/CCC(C)c1cc(O)c(C(=O)C(C)=Cc2ccc(OCC(F)F)cc2C)c(=O)o1 (mixture of isomers) [APY131, methyl ((1E)-5-(3-(3-(4-(2,2-difluoroethoxy)-2-methylphenyl)-2-methylacryloyl)-4-hydroxy-2-oxo-2H-pyran-6-yl)hex-1-en-1-yl)carbamate] |  | 0.7 |  | 8 | 200 | 30 | > 40 | > 50 | > 50 | 30 | > 50 | > 50 | > 50
17 | COC(=O)N/C=C/CCC(C)c1cc(O)c(C(=O)C(C)=Cc2cnc(CCC(C)C)s2)c(=O)o1 (mixture of isomers) [APY137, methyl ((1E)-5-(4-hydroxy-3-(3-(2-isopentylthiazol-5-yl)-2-methylacryloyl)-2-oxo-2H-pyran-6-yl)hex-1-en-1-yl)carbamate] |  | 0.08 |  | 1 | 10 | 6 | > 40 | 6 | 10 | 3 | 10 | 30 | 50
